Values joined by “and” are separate entries in the source; they are usually repeats but may differ in a detail not shown here. Identical values can stand only once.
Columns and labels:
A549 cells [1] = test: XTT cytotoxicity of C-1330 after chloroquine treatment, with and without illumination; assay type: cell-based, Human; conditions: 24 hours
A549 cells [2] = test: XTT cytotoxicity assay with and without illumination
Experimental: (§7) Parental cells and their MDR (multi-drug resistant) sub-lines were seeded in 96-well plates (2×10^4 cells/well in 90 μl growth medium/well). […] Following incubation for 2 hours, the drug-containing medium was replaced by drug-free medium. The cells were then placed on an illuminator plate (Model 460, thin line series, S&S X-Ray Products Inc., Brooklyn, N.Y.) for 1 hour, thereby achieving a light dose of 5 J/cm^2 white light. After illumination, plates were further incubated for an additional 24 hours.
Cell viability was determined using an XTT (2,3-bis-(2-methoxy-4-nitro-5-sulfophenyl)-2H-tetrazolium-5-carboxanilide) Cell Proliferation Kit (Biological Industries). […] Results are presented as mean values of at least three independent experiments.

A549 cells [3] = test: Texas Red-phalloidin staining of F-actin; assay type: cell-based, Human; conditions: 10 μM 30 minutes
Experimental: A549 cells were grown on coverslips in 24-well plates until confluence was reached. Cells were then incubated with 10 μM C-1330 for 30 minutes and then exposed to light for 1 minute, in order to achieve lysosomal photodestruction. Control cells were loaded with C-1330 but were not illuminated. C1330-loaded cells were ether fixed and stained with Texas Red®-X Phalloidin (Life Technologies) with no illumination or stained with Texas Red®-X Phalloidin 2 hours after illumination. Cells were then washed twice with PBS and fixed by adding 4% formaldehyde for 10 minutes at room temperature. Following two additional washes with PBS, 0.1% Triton X-100 was added for 10 minutes, and then washed twice to remove the Triton X-100. Blocking was then achieved using a solution of 20% skim milk and 2.5% fetal calf serum for 20 minutes. At this stage, 5 μl of Texas Red®-X Phalloidin stock solution was added to 0.2 ml of PBS and the samples were incubated for 20 minutes while being protected from light. The samples were finally rinsed to remove excess Texas Red®-X Phalloidin. Coverslips were removed gently from wells and attached onto slides using Fluoromount-G. Fluorescent cells were analyzed by a fluorescence microscope, using an excitation wavelength of 545 nm and an emission wavelength of 605 nm.

A549/K1.5 cells [4] = test: Live cell fluorescent imaging (lysosomal localization and photodestruction); assay type: cell-based, Human; conditions: A549/K1.5; 470 nm microscope illumination
Experimental: (§1) Lysosomes and mitochondria were stained by incubating the cells 100 nM LysoTracker® Red or 100 nM MitoTracker® Red, respectively, for 1 hour. For subcellular localization of C-1330, cells were also stained with 10 μM C-1330 for 30 minutes.
(§2) Nuclear staining was performed prior to fluorescence imaging by replacing the growth medium with medium containing 2 μg/ml Hoechst 33342, followed by incubation for 10 minutes. Prior to nuclear staining, A549/K1.5 cells were incubated for 1 hour with 10 μM fumitremorgin C (FTC) to prevent efflux of Hoechst 33342 by ABCG2.
(§3) Live cell fluorescent imaging was performed using an Axiovert 200 inverted fluorescence microscope (Carl Zeiss) equipped with a digital camera. […] Light intensity was maintained at 12.5% of the maximum. The magnification used was ×630.
(§4) Cells were pre-incubated with 10 mM ammonium chloride for 30 minutes or with 1 μM bafilomycin A1 for 60 minutes, prior to being incubated with 10 μM C-1330 for 30 minutes as described hereinabove. Ammonium chloride and bafilomycin A1 remained present during the incubation with C-1330.
A549/K1.5 cells were incubated with 10 μM doxorubicin for 30 minutes, and then observed and illuminated (at 470 nm) by live cell fluorescent imaging as described in the Materials and Methods section. Upon illumination, the cells were photographed every second, in order to observe changes in the cells over time.

A549 cells [5] = test: XTT cytotoxicity of C-1330 after chloroquine treatment, with and without illumination; assay type: cell-based, Human
Experimental: A549 cells were seeded in 96-well plates at a concentration of 500 cells/well for the 48 hour chloroquine treatment, or at a concentration of 1000 cells/well for the 24 hour chloroquine treatment, in a total volume of 100 μl of medium per well. Following an overnight incubation, chloroquine was then added at the indicated concentrations for 24 or 48 hours. Lysosomes were then stained with LysoTracker® Red, detected by fluorescent imaging as described hereinabove, and quantified using EZQuant software. […]

A549/K1.5 cells [6] = test: XTT cytotoxicity assay with and without illumination; assay type: cell-based, Human
Experimental: Human non-small cell lung cancer A549 cells and their ABCG2-overexpressing MDR (multi-drug resistant) A549/K1.5 sub-line; ovarian carcinoma cell line 2008 and its stable MRP1-transfectant 2008/MRP1; and human non-small lung cancer cell line SW1573 and its ABCB1-overexpressing subline SW1573/2R160) were maintained in RPMI-1640 medium supplemented with 10% fetal bovine serum, 2 mM glutamine, 100 μg/ml penicillin and streptomycin (Biological Industries, Beth-Haemek, Israel) in a humid atmosphere containing 5% CO2 at 37° C.
as §7
Cell viability was determined using an XTT (2,3-bis-(2-methoxy-4-nitro-5-sulfophenyl)-2H-tetrazolium-5-carboxanilide) Cell Proliferation Kit (Biological Industries). The drug concentrations required to inhibit cell growth by 50% (i.e., IC50 values) were determined from the cell survival curves in the absence and in the presence of illumination. Results are presented as mean values of at least three independent experiments.

A549/K1.5 cells [7] = test: Crystal violet staining of illuminated monolayers; assay type: cell-based, Human; conditions: 10 μM 30 min, 470 nm 1 minute, 48 hours after illumination
Experimental: (§5) A549 and A549/K1.5 cells were grown to full confluence on glass-bottom plates and loaded with 10 μM C-1330 for 30 minutes. Before illumination, the spent medium was replaced by fresh medium. Using the inverted fluorescence microscope as a source of illumination, each plate was illuminated for 1 minute at a wavelength of 470 nm, at an intensity of approximately 3 W/m^2. Cells were then incubated at 37° C. for an additional 48 hours. The cells were then washed twice with PBS, fixed with 70% methanol for 10 minutes and stained with a diluted dye solution (1:5) of crystal violet. Stained monolayer cells were then washed three times with double distilled water. Crystal violet-stained cells were then examined and photographed using an M80 binocular at a x8 magnification (Leica Microsystems GmbH), and by an inverted Cell-Observer microscope, at a x1000 magnification (Carl Zeiss).
(§6) Monolayers of A549 and A549/K1.5 cells were pulse-incubated with C-1330 for 30 minutes, washed with drug-free medium, subjected to illumination for 1 minute with a fluorescence microscope, and incubated for 48 additional hours in growth medium. The confluent monolayers were then washed with PBS, fixed with methanol, and stained with crystal violet. The monolayers were then examined by light microscopy.

A549 cells [8] = test: Crystal violet staining of illuminated monolayers; assay type: cell-based, Human; conditions: 10 μM 30 min, 470 nm 1 minute, 48 hours after illumination
Experimental: as §5, §6

A549 cells [9] = test: Live cell fluorescent imaging (lysosomal localization and photodestruction); assay type: cell-based, Human; conditions: 470 nm microscope illumination
Experimental: as §1, §2, §3, §4
Monolayers of A549 cells were grown in glass-bottom plates and were washed in growth medium. The medium was then replaced with a special isotonic balanced salt solution lacking or containing either N,N′-dimethylthiourea (DMTU), a potent hydroxyl radical and hydrogen peroxide scavenger, L-histidine, a hydroxyl radical and singlet oxygen radical (^1O2) scavenger, or sodium azide, a singlet oxygen radical scavenger. The salt solution consisted of 10 mM HEPES pH 7.4, 120 mM NaCl, 5 mM KCl, 1 mM CaCl2, 1 mM MgCl2, and 25 mM glucose. After incubation for 1 hour, C-1330 was added to the aforementioned solution buffer for an additional 30 minutes, during which the scavengers remained present, in order to load lysosomes. The cells were then examined by fluorescent imaging as described hereinabove.

[10] = chloroquine 20 (μM), 24 hours, no illumination
[11] = chloroquine 20 (μM), 48 hours, no illumination

**Q.** CCN(CC)CCNc1ccc2ncn3c4ccc(OC)cc4c(=O)c1c23 [C-1330] was tested. Which “C-1330 LD50 Illumination” value (A549 cells [1]; chloroquine 50 (μM)) did it give?
**A.** The value was 0.637 ± 0.174 µM.

**Q.** And the “Survival at 3000 nM Control” value (A549 cells [1]; chloroquine 50 (μM), no illumination)?
**A.** The value was 92 ± 7%.

**Q.** What about the “C-1330 LD50 Illumination” value (A549 cells [1]; chloroquine 100 (μM)) of the same molecule?
**A.** Its value is 0.498 ± 0.064 µM.

**Q.** What about the “C-1330 LD50 Control” value (A549 cells [1]; chloroquine 100 (μM), no illumination) of the same molecule?
**A.** Its value is 15.048 ± 2.886 µM.

**Q.** And the “difference in survival of illuminated and non-illuminated cells” value (A549 cells [2]; 3 μM)?
**A.** The value was 29%.

**Q.** And the Fold sensitization (A549 cells [2]; control vs illumination)?
**A.** Its Fold sensitization is 6.

**Q.** And the “Survival at 3000 nM Control” value (A549 cells [2]; no illumination)?
**A.** The value was 72% and 72 ± 5%.

**Q.** And the “LD50 Control” value (A549 cells [2]; no illumination, 2 h drug, XTT 24 h later)?
**A.** The value was 5.023 ± 0.716 µM.

**Q.** What about the “LD50 Illumination” value (A549 cells [2]; white light 1 hour (5 J/cm^2)) of the same molecule?
**A.** Its value is 842 ± 208 nM.

**Q.** And the “Survival at 3000 nM Illumination” value (A549 cells [2]; white light illumination)?
**A.** The value was 43% and 43 ± 6%.

**Q.** What about the “actin cytoskeleton after illumination” value (A549 cells [3]; 2 hours after illumination) of the same molecule?
**A.** The value was “devoid of cytoplasmic content and actin cytoskeleton”.

**Q.** And the “actin cytoskeleton without illumination” value (A549 cells [3]; no illumination)?
**A.** Its value is “retained a normal actin cytoskeleton”.

**Q.** And the “lysosomal photodestruction upon blue light illumination” value (A549/K1.5 cells [4])?
**A.** Its value is “continuous disappearance of lysosomes”.

**Q.** What about the “cell death without illumination at the indicated concentration (LD10)” value (A549 cells [5]; 20 μM chloroquine 48 hours, FIG. 12C dotted line, no illumination) of the same molecule?
**A.** Its value is “approximately 10%”.

**Q.** What about the “cell death with illumination at the indicated concentration (LD90)” value (A549 cells [5]; 20 μM chloroquine 48 hours, FIG. 12C dotted line, white light) of the same molecule?
**A.** Its value is roughly 90%.

**Q.** What about the Fold sensitization (A549 cells [5]; chloroquine 20 (nM), 24 hours) of the same molecule?
**A.** The Fold sensitization was 23.

**Q.** What about the Fold sensitization (A549 cells [5]; chloroquine 20 (nM), 48 hours) of the same molecule?
**A.** The Fold sensitization was 49.

**Q.** And the “C-1330 LD50 Illumination” value (A549 cells [5]; chloroquine 20 (μM), 24 hours)?
**A.** Its value is 0.648 ± 0.065 µM.

**Q.** What about the “Survival at 3000 nM Illumination” value (A549 cells [5]; chloroquine 20 (μM), 24 hours) of the same molecule?
**A.** The value was 29% and 29 ± 07%.

**Q.** And the “C-1330 LD50 Control” value (A549 cells [5]; [10])?
**A.** Its value is 15.222 ± 0.378 µM.

**Q.** And the “Survival at 3000 nM Control” value (A549 cells [5]; [10])?
**A.** Its value is 79% and 79 ± 5%.

**Q.** And the “C-1330 LD50 Illumination” value (A549 cells [5]; chloroquine 20 (μM), 48 hours)?
**A.** Its value is 0.7 ± 0.043 µM.

**Q.** What about the “Survival at 3000 nM Illumination” value (A549 cells [5]; chloroquine 20 (μM), 48 hours) of the same molecule?
**A.** Its value is 9% and 9 ± 3%.

**Q.** What about the “C-1330 LD50 Control” value (A549 cells [5]; [11]) of the same molecule?
**A.** The value was 34.137 ± 3.084 µM.

**Q.** And the “Survival at 3000 nM Control” value (A549 cells [5]; [11])?
**A.** Its value is 88% and 88 ± 8%.

**Q.** What about the Fold sensitization (A549 cells [5]; chloroquine 50 (nM), 24 hours) of the same molecule?
**A.** Its Fold sensitization is 31.

**Q.** What about the “Survival at 3000 nM Illumination” value (A549 cells [5]; chloroquine 50 (μM), 24 hours) of the same molecule?
**A.** Its value is 23 ± 2%.

**Q.** What about the “C-1330 LD50 Control” value (A549 cells [5]; chloroquine 50 (μM), 24 hours, no illumination) of the same molecule?
**A.** Its value is 19.609 ± 2.454 µM.

**Q.** And the Fold sensitization (A549 cells [5]; chloroquine 100 (nM), 24 hours)?
**A.** The Fold sensitization was 30.

**Q.** And the “Survival at 3000 nM Illumination” value (A549 cells [5]; chloroquine 100 (μM), 24 hours)?
**A.** Its value is 19 ± 3%.

**Q.** And the “Survival at 3000 nM Control” value (A549 cells [5]; chloroquine 100 (μM), 24 hours, no illumination)?
**A.** The value was 90 ± 9%.

**Q.** What about the “difference in survival of illuminated and non-illuminated cells” value (A549/K1.5 cells [6]; A549/K1.5, 3 μM) of the same molecule?
**A.** The value was 59%.

**Q.** And the “cell death without illumination at the indicated concentration (LD10)” value (A549/K1.5 cells [6]; A549/K1.5, FIG. 9B dotted line, no illumination)?
**A.** Its value is “approximately 10%”.

**Q.** What about the “cell death with illumination at the indicated concentration (LD70)” value (A549/K1.5 cells [6]; A549/K1.5, FIG. 9B dotted line, white light) of the same molecule?
**A.** Its value is roughly 70%.

**Q.** And the Fold sensitization (A549/K1.5 cells [6]; A549/K1.5, control vs illumination)?
**A.** Its Fold sensitization is 14.

**Q.** And the “LD50 Control” value (A549/K1.5 cells [6]; A549/K1.5, no illumination)?
**A.** Its value is 12.269 ± 1.119 µM.

**Q.** What about the “Survival at 3000 nM Control” value (A549/K1.5 cells [6]; A549/K1.5, no illumination) of the same molecule?
**A.** Its value is 87 ± 4%.

**Q.** And the “LD50 Illumination” value (A549/K1.5 cells [6]; A549/K1.5, white light 1 hour (5 J/cm^2))?
**A.** The value was 850 ± 23 nM.

**Q.** What about the “Survival at 3000 nM Illumination” value (A549/K1.5 cells [6]; A549/K1.5, white light illumination) of the same molecule?
**A.** Its value is 28 ± 1%.

**Q.** What about the “resistance of A549/K1.5 cells compared to parental A549 cells” value (A549/K1.5 cells [6]; no illumination) of the same molecule?
**A.** The value was 2.5 fold.

**Q.** What about the “appearance of illuminated area of monolayer (crystal violet)” value (A549/K1.5 cells [7]) of the same molecule?
**A.** The value was “region of lysed cells”.

**Q.** And the “appearance of illuminated area of monolayer (crystal violet)” value (A549 cells [8])?
**A.** Its value is “region of lysed cells”.

**Q.** And the “lysosomal photodestruction upon blue light illumination” value (A549 cells [9])?
**A.** Its value is “continuous disappearance of lysosomes”.

Reference: patent US8630703B2, “Treatment utilizing hydrophobic weak bases chemotherapeutic agents and illumination” (Technion Research & Development Foundation Limited, priority 2011, dated 2014)
